Test results taken from PubChem BioAssay AID1996.
Values after ≈ are worked out from the molar mass of the structure shown.

Details: buffer; pH 7.4; 200.0 µM

Compound | solubility kinetic [µg/mL]
O=C1CCC(C(=O)OCC(=O)Nc2ccc(Cl)cc2C(F)(F)F)=NN1 | > 56.7
Cc1ccc(C2=N/C(=C\c3ccc(F)cc3)C(=O)N2)cc1 | 0.7 (≈ 2.5 µM)
CC1(C(=O)OCC(=O)Nc2ccc(S(=O)(=O)N3CCOCC3)cc2)CC1(Cl)Cl (stereo not given) | 60.5 (≈ 134 µM)
COc1ccccc1NC(=O)CCNC(=O)c1ccc(C)cc1 | > 46.9
c1ccc2c(c1)OCC(CNCC1COc3ccccc3O1)O2 (stereo not given) | > 47
O=C1COc2ccc(N3C(=O)c4ccccc4C3=O)cc2N1 | 1.9 (≈ 6.46 µM)
O=C(NCCSCc1c(F)cccc1Cl)Nc1ccccc1 | 2.5 (≈ 7.38 µM)
O=C1CSC(=S)N1c1cccc(Cl)c1 | 0.7 (≈ 2.87 µM)
NC(=O)c1c(NC(=O)c2ccc(F)cc2Cl)sc2c1CCC2 | 1 (≈ 2.95 µM)
CN(C1CCS(=O)(=O)C1)S(=O)(=O)c1ccccc1 (stereo not given) | > 43.4
CC1CCCN(C(=O)/C(=C/c2ccco2)NC(=O)c2ccccc2)C1 (stereo not given) | > 50.8
Cc1ccc[n+](CC(=O)N2CCCc3ccccc32)c1.[Cl-] | > 45.4
CC(C)CNC(=O)c1cccc2c1-c1ccccc1C2=O | 2.5 (≈ 8.95 µM)
COc1ccccc1OCCn1cc(C(=O)C(C)C)c2ccccc21 | < 0.7
CC(O)c1cccc(NC(=O)Cc2cccc3ccccc23)c1 (stereo not given) | 44.7 (≈ 146 µM)
C=CCn1c(O)c(N=O)c2cc(C)ccc21 | > 32.4
O=C(Nc1ccccc1F)C1COc2ccccc2O1 (stereo not given) | 25.6 (≈ 93.7 µM)
CC(C)Oc1ccccc1Cn1c(=O)oc2ccccc21 | 9 (≈ 31.8 µM)
CN(C)C(CNC(=O)c1cc(-c2ccco2)nc2ccccc12)c1ccccc1 (stereo not given) | 33.9 (≈ 87.9 µM)
Br.CNc1nc2ccccc2n1CC(=O)c1ccccc1 | > 51.9
COc1ccccc1N1CCN(C(=O)/C=C/c2cccc([N+](=O)[O-])c2)CC1 | 3.6 (≈ 9.8 µM)
Cc1nc2ccccc2n1CCOc1ccccc1 | > 37.8

Compound | solubility kinetic [µg/mL]
c1ccc(-n2cnc3ccccc32)cc1 | 24.6 (≈ 127 µM)
CC1(C)Cc2c(c(-c3ccccc3)nc3sc4c(=O)[nH]c(=S)[nH]c4c23)CO1 | 10.5 (≈ 26.5 µM)
Cl.c1cnc(N2CCNCC2)nc1 | > 35.6
CS(=O)(=O)N1Cc2ccccc2CC1C(=O)OCC(=O)NCc1ccccc1 (stereo not given) | > 60.4
C=CCOC(=O)C1=C(C)NC(=O)NC1c1ccc(OCC)cc1 (stereo not given) | 7.4 (≈ 23.4 µM)
COc1cc(C(F)(F)F)c(C(=O)N(C)Cc2cccc(Cl)c2)cn1 | 43.6 (≈ 122 µM)
COc1cc(/C=N/NC(=O)CNC(=O)c2ccncc2)ccc1O | > 49.2
C1=C(c2c[nH]c3ccccc23)CCN(Cc2ccccc2)C1 | 7.2 (≈ 25 µM)
COc1nccnc1NS(=O)(=O)c1ccc(N)cc1 | > 42
O=C(Cc1ccc(Cl)cc1)Nc1ccc(CN2CCCCC2)cc1 | > 51.4
NS(=O)(=O)c1ccc(CCNS(=O)(=O)c2ccc(Cl)s2)cc1 | > 57.1
COc1ccc(NC(=O)c2cc(C)no2)cc1 | > 34.8
COc1ccc(NC(=O)CSc2nnc(N)s2)c([N+](=O)[O-])c1 | > 51.2
Nc1ccc(CCC(=O)N2CCCC2)cc1 | > 32.7
O=C1/C(=C/c2ccc(O)cc2)SC(=S)N1CC1CCCO1 (stereo not given) | 1.3 (≈ 4.04 µM)
Cc1ccc(NC(=O)CCCc2ccccc2)c([N+](=O)[O-])c1 | 4.5 (≈ 15.1 µM)
CC1CCC(N2CCN(c3ccc([N+](=O)[O-])cc3)CC2)CC1 (stereo not given) | 19.1 (≈ 63 µM)
COc1ccc(C(C)=O)cc1Cn1c(=O)cc(C)[nH]c1=O | > 43.2
COCCCn1c(=O)c2ccccc2n(CC(=O)NC2CCCC2)c1=O | > 53.9
O=C(Nc1ccccc1)c1ccc(=O)n(Cc2cccc(Cl)c2)c1 | 22.1 (≈ 65.2 µM)
O=C(CN1C(=O)C(=O)c2ccccc21)c1ccccc1 | 33.8 (≈ 127 µM)
CCCOP(=O)(c1ccc(N(C)C)cc1)C(O)c1ccc(Cl)cc1 (stereo not given) | 18.5 (≈ 50.3 µM)

Compound | solubility kinetic [µg/mL]
CNC(=O)CSc1nnc(-c2ccc3c(c2)OCO3)n1C | > 46
CC1(C)C2CCC1(CS(=O)(=O)NC1CCCC1)C(=O)C2 (stereo not given) | > 44.9
COc1ccc(/C=C2\SC(=O)N(CCCC(=O)Nc3cc(Cl)ccc3C(=O)O)C2=O)cc1 | > 71.2
CCOC(=O)c1nc(Nc2ccccc2C)c2ccccc2n1 | > 46.1
Cl.N#C/C(=C\c1ccccc1)C(=O)NCCN1CCOCC1 | > 48.3
Cn1c(SCC(=O)Nc2ccccc2)nc2ccccc2c1=O | 3.2 (≈ 9.83 µM)
COc1ccc(CNc2cc(C)ccn2)c(O)c1 | 29.9 (≈ 122 µM)
CC1CCCC(C)N1C(=O)COC(=O)c1cncc(Br)c1 (stereo not given) | > 53.3
Cc1cc(Cl)cc(Cl)c1OCCN1CCCC1 | 30.2 (≈ 110 µM)
Cc1cc(C)cc(NC(=O)CCN2CCCC2)c1 | 35.3 (≈ 143 µM)
Cc1cc(NC(=O)C2=C(O)c3ccccc3S(=O)(=O)N2C)no1 | 33.9 (≈ 101 µM)
Cc1cccc(C)c1NC(=O)CNCC(=O)N(C)C | > 39.5
Cc1ccc(NC(=O)CNC(=O)c2ccco2)cc1Cl | 7 (≈ 23.9 µM)
CN(Cc1ccccc1F)C(=O)CCCNC(=O)c1ccc(Cl)cc1 | 32.4 (≈ 89.3 µM)
CCCCOc1ccc(C(=O)OCC(=O)c2c(N)n(C)c(=O)n(C)c2=O)cc1 | 4.4 (≈ 11.3 µM)
OC1CCC(NC(=S)Nc2ccc(SC(F)F)cc2)CC1 (stereo not given) | 43.8 (≈ 132 µM)
Cc1cccc(S(=O)(=O)N2CCCc3ccccc32)c1 | 6.7 (≈ 23.3 µM)
CCOc1ccc(-n2c(=O)c3ccccc3c3ccccc3c2=O)cc1 | 18 (≈ 52.4 µM)
CCOC(=O)N1CCN(C(=O)COC(=O)c2ccc(N(C)C)cc2)CC1 | > 54.5
CCN1CCc2c(OCC(=O)Nc3cccc(C)c3)cccc2C1=O | > 50.8
CC(C)c1nnc(NC(=O)CCC(=O)NC2CC2)s1 | > 42.4
CN1CCN(c2c([N+](=O)[O-])cnc3ccccc23)CC1.Cl | > 46.3

Compound | solubility kinetic [µg/mL]
Cc1ccc(NC(=O)CCC(=O)c2ccc(Cl)s2)nc1 | 7.5 (≈ 24.3 µM)
CCCCNC(=O)c1ccc(CS(=O)(=O)Cc2ccccc2F)o1 | > 53
Cc1cccc(C)c1NC(=O)C1CCN(C(=O)c2cccs2)CC1 | 39.1 (≈ 114 µM)
CC(C)(C)/C(O)=C/c1nc2ccccc2oc1=O | 36.8 (≈ 150 µM)
CNC(=O)CSc1nccn1Cc1ccc(Cl)cc1 | > 44.4
COc1ccc2[nH]c(C(=O)N(Cc3ccccn3)Cc3ccccn3)cc2c1 | > 55.9
CC(=O)c1c(C)[nH]c(C(=O)Nc2nccs2)c1C | 20.8 (≈ 79 µM)
CCOc1ccc(S(=O)(=O)N2CCN(C(=O)c3ccco3)CC2)cc1 | > 54.7
COc1ccccc1CNC(=O)c1sccc1C | 26.6 (≈ 102 µM)
COc1cc(/C=C2\NC(=O)NC2=O)cc(Br)c1OC | 10.5 (≈ 32.1 µM)
COc1cccc(/C=C2\N=C(C3CCCCC3)OC2=O)c1OC | 16.4 (≈ 52 µM)
CC(C)C(=O)N1CCN(c2ccccc2NC(=S)NC(=O)/C=C/c2ccco2)CC1 | 1.6 (≈ 3.75 µM)
Cc1ccc(/C=C(\NC(=O)c2ccccc2)C(=O)N2CCCCC2)cc1 | 39.9 (≈ 115 µM)
CCCOc1ccc(NC(=O)CC2Nc3ccccc3NC2=O)cc1 (stereo not given) | 2.7 (≈ 7.96 µM)
CC(C)[C@H](NC(=O)C1CCCC1)c1nc2ccccc2[nH]1 | 9.9 (≈ 34.7 µM)
CC(=O)Cn1c(=O)oc2ccccc21 | 27.1 (≈ 142 µM)
CC1COc2ccccc2N1C(=O)c1ccccc1Cl (stereo not given) | > 43.2
Cc1[nH]c2ccccc2c1C(=O)CN1CCCC(C)C1 (stereo not given) | 40.5 (≈ 150 µM)
CC(=O)Nc1cc2c(cc1[N+](=O)[O-])OCCO2 | > 35.7
